{"source": "patent US10457654B2", "about": "(GENENTECH, INC., priority 2017, dated 2019)", "note": "Where a name gives a salt, the structure may show the parent alone."}
{"target": "hNav1.7 (Homo sapiens (Human), UniProt Q15858)", "sequence (Q15858 whole entry, looked up)": "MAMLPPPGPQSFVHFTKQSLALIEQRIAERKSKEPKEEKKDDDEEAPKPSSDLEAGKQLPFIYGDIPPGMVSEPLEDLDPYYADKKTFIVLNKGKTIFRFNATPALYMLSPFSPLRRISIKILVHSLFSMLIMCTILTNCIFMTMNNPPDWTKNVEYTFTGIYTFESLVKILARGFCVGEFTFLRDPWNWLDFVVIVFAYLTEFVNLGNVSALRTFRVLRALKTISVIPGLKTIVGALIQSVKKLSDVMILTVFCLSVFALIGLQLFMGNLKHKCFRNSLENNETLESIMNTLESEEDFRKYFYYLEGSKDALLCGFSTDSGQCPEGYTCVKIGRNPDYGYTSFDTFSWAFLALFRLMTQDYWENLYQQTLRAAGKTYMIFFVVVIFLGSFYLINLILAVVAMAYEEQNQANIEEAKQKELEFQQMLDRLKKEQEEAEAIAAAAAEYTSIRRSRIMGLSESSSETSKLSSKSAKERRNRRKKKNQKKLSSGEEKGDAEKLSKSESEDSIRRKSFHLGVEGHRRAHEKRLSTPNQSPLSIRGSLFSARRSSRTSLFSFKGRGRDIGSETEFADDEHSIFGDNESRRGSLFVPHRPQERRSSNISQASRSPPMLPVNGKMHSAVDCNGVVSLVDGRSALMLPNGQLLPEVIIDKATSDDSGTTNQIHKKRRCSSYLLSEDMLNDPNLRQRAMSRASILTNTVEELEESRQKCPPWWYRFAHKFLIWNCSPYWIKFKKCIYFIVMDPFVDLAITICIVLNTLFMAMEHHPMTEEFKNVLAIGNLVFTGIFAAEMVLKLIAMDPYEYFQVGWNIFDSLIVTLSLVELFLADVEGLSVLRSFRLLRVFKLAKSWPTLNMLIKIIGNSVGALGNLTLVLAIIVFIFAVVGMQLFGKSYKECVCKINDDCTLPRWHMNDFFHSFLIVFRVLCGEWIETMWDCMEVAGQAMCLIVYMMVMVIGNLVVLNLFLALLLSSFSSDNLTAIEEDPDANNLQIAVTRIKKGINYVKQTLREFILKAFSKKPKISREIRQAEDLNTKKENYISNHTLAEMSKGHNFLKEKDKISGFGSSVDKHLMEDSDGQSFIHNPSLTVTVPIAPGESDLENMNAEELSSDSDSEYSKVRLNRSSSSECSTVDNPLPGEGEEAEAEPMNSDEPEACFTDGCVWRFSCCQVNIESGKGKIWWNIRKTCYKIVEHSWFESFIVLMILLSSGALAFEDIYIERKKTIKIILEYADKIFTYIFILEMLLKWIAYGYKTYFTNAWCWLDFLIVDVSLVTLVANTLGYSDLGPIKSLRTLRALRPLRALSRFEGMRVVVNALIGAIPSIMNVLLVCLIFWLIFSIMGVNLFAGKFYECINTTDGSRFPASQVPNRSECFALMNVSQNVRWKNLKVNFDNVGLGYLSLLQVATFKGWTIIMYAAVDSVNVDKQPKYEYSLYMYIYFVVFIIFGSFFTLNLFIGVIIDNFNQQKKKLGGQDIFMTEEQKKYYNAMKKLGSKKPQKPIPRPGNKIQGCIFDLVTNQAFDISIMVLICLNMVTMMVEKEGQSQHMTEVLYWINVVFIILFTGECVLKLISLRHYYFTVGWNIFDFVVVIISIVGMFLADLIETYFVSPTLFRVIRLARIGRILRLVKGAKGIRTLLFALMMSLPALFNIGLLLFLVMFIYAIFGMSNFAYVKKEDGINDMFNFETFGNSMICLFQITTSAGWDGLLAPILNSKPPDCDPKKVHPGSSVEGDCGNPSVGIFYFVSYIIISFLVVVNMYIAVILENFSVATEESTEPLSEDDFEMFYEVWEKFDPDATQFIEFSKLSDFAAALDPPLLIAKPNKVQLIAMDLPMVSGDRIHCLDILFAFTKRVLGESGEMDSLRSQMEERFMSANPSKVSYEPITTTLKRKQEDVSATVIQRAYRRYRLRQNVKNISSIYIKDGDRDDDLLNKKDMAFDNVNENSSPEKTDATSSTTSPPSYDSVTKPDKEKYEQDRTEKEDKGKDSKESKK", "sequence (Q07699 whole entry partner, looked up)": "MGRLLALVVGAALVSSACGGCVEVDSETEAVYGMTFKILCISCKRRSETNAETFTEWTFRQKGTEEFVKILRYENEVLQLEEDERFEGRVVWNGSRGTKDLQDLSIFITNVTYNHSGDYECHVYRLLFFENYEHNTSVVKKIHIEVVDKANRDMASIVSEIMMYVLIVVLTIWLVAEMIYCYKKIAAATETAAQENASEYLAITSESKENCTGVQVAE", "assay": "Tritiated compound binding to membranes from cells expressing hNav1.7 and the β1 subunit, competitive binding (LBA, Ex. 243A)", "settings": "100 pM [3H]compound, 18 h, room temperature; read-out: Nav1.7 (LBA) (Ex. 243A)", "method": "(§1) Tritiated Compound Binding to Membranes Isolated from Cells that Heterologously Express hNav1.7 and the β1 Subunit\n(§2) Preparation of membranes containing recombinantly expressed sodium channels: Frozen recombinant cell pellets were thawed on ice and diluted to 4 times the cell pellet weight with ice cold 50 mM Tris HCl, pH 7.4 buffer. The cell suspensions were homogenized on ice using a motorized glass dounce homogeniser. Homogenates were further diluted 8.4 times with ice cold 50 mM Tris HCl, pH 7.4 buffer and then centrifuged at 200×g at 4° C. for 15 min. The supernatants were collected and centrifuged at 10000×g at 4° C. for 50 min. […] The homogenized membranes were then processed through a syringe equipped with a 26 gauge needle. Protein concentrations were determined by Bradford Assay and the membranes were stored at −80° C.\n(§3) Radioligand Binding Studies: Saturation experiments. A competitive NaV1.7 inhibitor having a methyl group was tritiated. Three tritiums were incorporated in place of methyl hydrogens to generate [^3H]compound. Binding of this radioligand was performed in 5 mL borosilicate glass test tubes at room temperature. […] Non-specific binding was determined in the presence of 1 μM unlabeled compound. After 18h, the reactants were filtered through GF/C glass fiber filters presoaked in 0.5% w/v polyethylene imine. […] [^3H]compound bound to filters was quantified by liquid scintillation counting.\n(§4) Competitive binding experiments: Binding reactions were performed in 96-well polypropylene plates at room temperature for 18h. In 360 μL, membranes were incubated with 100 pM [^3H]compound and increasing concentrations of Test Compound. Non-specific binding was defined in the presence of 1 μM unlabeled compound. Reactions were transferred and filtered through 96-well glass fiber/C filter plates presoaked with 0.5% polyethylene imine. The filtered reactions were washed 5 times with 200 μL ice cold buffer containing 0.25% BSA. Bound radioactivity was determined by liquid scintillation counting.\n(§5) Data Analysis: For saturation experiments, non-specific binding was subtracted from total binding to provide specific binding and these values were recalculated in terms of pmol ligand bound per mg protein. Saturation curves were constructed and dissociation constants were calculated using the single site ligand binding model: Beq=(Bmax*X)/(X+Kd), where Beq is the amount of ligand bound at equilibrium, Bmax is the maximum receptor density, Kd is the dissociation constant for the ligand, and X is the free ligand concentration. For competition studies percent inhibition was determined and IC50 values were calculated using a 4 parameter logistic model (% inhibition=(A+((B−A)/(1+((x/C)^D)))) using XLfit, where A and B are the maximal and minimum inhibition respectively, C is the IC50 concentration and D is the (Hill) slope.", "units": {"IC50": "nM"}}
{"compound": "5-chloro-4-(((1 S,2S)-2-(ethylamino)cyclohexyl)amino)-2-fluoro-N-(pyrimidin-4-yl)benzenesulfonamide [Example 22]", "IC50": 95.1}
{"compound": "CN(C)[C@H]1CC(C(F)(F)F)=CC[C@@H]1Nc1cc(F)c(S(=O)(=O)Nc2nccs2)cc1Cl", "note": "[Example 23]", "IC50": 8.4}
{"compound": "CCN(C)[C@H]1CCCC[C@@H]1Nc1cc(F)c(S(=O)(=O)Nc2nccs2)cc1Cl", "note": "[Example 18, 5-chloro-4-[[(1S,2S)-2-[ethyl(methyl)amino]cyclohexyl]amino]-2-fluoro-N-thiazol-2-yl-benzenesulfonamide]", "IC50": 16.8}
{"compound": "CN(C)[C@H]1CCCC[C@@H]1Nc1cc(F)c(S(=O)(=O)Nc2ncns2)cc1F", "note": "[Example 13, 4-(((1S,2S)-2-(dimethylamino)cyclohexyl)amino)-2,5-difluoro-N-(1,2,4-thiadiazol-5-yl)benzenesulfonamide formate]", "IC50": 357}
{"compound": "O=S(=O)(Nc1nccs1)c1cc(Cl)c(N[C@H]2CCCC[C@@H]2NCc2ccccc2)cc1F", "note": "[Example 5, 4-(((1S,2S)-2-(benzylamino)cyclohexyl)amino)-5-chloro-2-fluoro-N-(thiazol-2-yl)benzenesulfonamide 2,2,2-trifluoroacetate]", "IC50": 426}
{"compound": "O=S(=O)(Nc1nccs1)c1cc(Cl)c(N[C@H]2CCCC[C@@H]2NC2CCC2)cc1F", "note": "[Example 16, 5-chloro-4-[[(1S,2S)-2-(cyclobutylamino)cyclohexyl]amino]-2-fluoro-N-thiazol-2-yl-benzenesulfonamide]", "IC50": 325}
{"compound": "N[C@H]1CCCC[C@@H]1Nc1cc(F)c(S(=O)(=O)Nc2nccs2)cc1Cl", "note": "[Example 1, 4-(((1S,2S)-2-aminocyclohexyl)amino)-5-chloro-2-fluoro-N-(thiazol-2-yl)benzenesulfonamide]", "IC50": 197}
{"compound": "CN(C1CC1)[C@H]1CCCC[C@@H]1Nc1cc(F)c(S(=O)(=O)Nc2nccs2)cc1Cl", "note": "[Example 19, 5-chloro-4-[[(1S,2S)-2-[cyclopropyl(methyl)amino]cyclohexyl]amino]-2-fluoro-N-thiazol-2-yl-benzenesulfonamide]", "IC50": 45.1}
{"compound": "CCN(CC)[C@H]1CCCC[C@@H]1Nc1cc(F)c(S(=O)(=O)Nc2nccs2)cc1Cl", "note": "[Example 17, 5-chloro-4-[[(1S,2S)-2-(diethylamino)cyclohexyl]amino]-2-fluoro-N-thiazol-2-yl-benzenesulfonamide]", "IC50": 237}
{"compound": "CCN(Cc1ccccc1)[C@H]1CCCC[C@@H]1Nc1cc(F)c(S(=O)(=O)Nc2nccs2)cc1Cl", "note": "[Example 6, 4-(((1S,2S)-2-(benzyl(ethyl)amino)cyclohexyl)amino)-5-chloro-2-fluoro-N-(thiazol-2-yl)benzenesulfonamide]", "IC50": 994}
{"target": "hNav1.7 (Homo sapiens (Human), UniProt Q15858)", "assay": "Tritiated compound binding to membranes from cells expressing hNav1.7 and the β1 subunit, competitive binding (LBA, Ex. 243A)", "settings": "100 pM [3H]compound, 18 h, room temperature; read-out: Nav1.7 LBA (Ex. 243A) IC50", "method": "as §1, §2, §3, §4, §5", "units": {"IC50": "nM"}}
{"compound": "CNCCN(C)[C@H]1CCCC[C@@H]1Nc1cc(F)c(S(=O)(=O)Nc2nccs2)cc1Cl", "note": "[Example 58, 5-chloro-2-fluoro-4-(((1S,2S)-2-(methyl(2-(methylamino)ethyl)amino)cyclohexyl)amino)-N-(thiazol-2-yl)benzenesulfonamide formate]", "IC50": 3.42}
{"compound": "O=S(=O)(Nc1nccs1)c1cc(Cl)c(N[C@H]2CCCC[C@@H]2N2CC[C@@H](O)C2)cc1F", "note": "[Example 68, 5-chloro-2-fluoro-4-(((1S,2S)-2-((R)-3-hydroxypyrrolidin-1-yl)cyclohexyl)amino)-N-(thiazol-2-yl)benzenesulfonamide]", "IC50": 16.6}
{"compound": "CCN[C@H]1CCCC[C@@H]1Nc1cc(F)c(S(=O)(=O)Nc2nccs2)cc1Br", "note": "[Example 52, 5-bromo-4-(((1S,2S)-2-(ethylamino)cyclohexyl)amino)-2-fluoro-N-(thiazol-2-yl)benzenesulfonamide formate]", "IC50": 8.48}
{"compound": "CN(C[C@@H](O)C(F)(F)F)[C@H]1CCCC[C@@H]1Nc1cc(F)c(S(=O)(=O)Nc2nccs2)cc1Cl", "note": "[Example 95, 5-chloro-2-fluoro-4-(((1S,2S)-2-(methyl((R)-3,3,3-trifluoro-2-hydroxypropyl)amino)cyclohexyl)amino)-N-(thiazol-2-yl)benzenesulfonamide]", "IC50": 24.3}
{"compound": "CN(C1CNC1)[C@H]1CCCC[C@@H]1Oc1cc(F)c(S(=O)(=O)Nc2nccs2)cc1C1CC1", "note": "[Example 90, 4-(((1S,2S)-2-(azetidin-3-yl(methyl)amino)cyclohexyl)oxy)-5-cyclopropyl-2-fluoro-N-(thiazol-2-yl)benzenesulfonamide formate]", "IC50": 2.64}
{"compound": "CCN[C@H]1CCCC[C@@H]1Nc1cc(F)c(S(=O)(=O)Nc2ccncn2)cc1C1CC1", "note": "[Example 100, 5-cyclopropyl-4-(((1S,2S)-2-(ethylamino)cyclohexyl)amino)-2-fluoro-N-(pyrimidin-4-yl)benzenesulfonamide]", "IC50": 127}
{"compound": "CN(C)[C@H]1CC[C@@H](c2cccc(C(F)(F)F)c2)C[C@@H]1Nc1cc(F)c(S(=O)(=O)Nc2nccs2)cc1Cl", "note": "[Example 88, 5-chloro-4-(((1S,2S,5R)-2-(dimethylamino)-5-(3-(trifluoromethyl)phenyl)cyclohexyl)amino)-2-fluoro-N-(thiazol-2-yl)benzenesulfonamide]", "IC50": 201}
{"compound": "CN(C)[C@H]1CC[C@H](c2cccc(C(F)(F)F)c2)C[C@@H]1Nc1cc(F)c(S(=O)(=O)Nc2nccs2)cc1Cl", "note": "[Example 87, 5-chloro-4-(((1S,2S,5S)-2-(dimethylamino)-5-(3-(trifluoromethyl)phenyl)cyclohexyl)amino)-2-fluoro-N-(thiazol-2-yl)benzenesulfonamide]", "IC50": 0.539}
{"compound": "CN(C)[C@H]1CC[C@@H](C(F)(F)F)C[C@@H]1Nc1cc(F)c(S(=O)(=O)Nc2nccs2)cc1Cl", "note": "[Example 76, 5-chloro-4-(((1S,2S,5R)-2-(dimethylamino)-5-(trifluoromethyl)cyclohexyl)amino)-2-fluoro-N-(thiazol-2-yl)benzenesulfonamide]", "IC50": 116}
{"compound": "CN(CCO)[C@H]1CCCC[C@@H]1Nc1cc(F)c(S(=O)(=O)Nc2ccncn2)cc1Cl", "note": "[Example 89, 5-chloro-2-fluoro-4-(((1S,2S)-2-((2-hydroxyethyl)(methyl)amino)cyclohexyl)amino)-N-(pyrimidin-4-yl)benzenesulfonamide formate]", "IC50": 59.9}
{"compound": "CNC(=O)CN(C)[C@H]1CCCC[C@@H]1Nc1cc(F)c(S(=O)(=O)Nc2nccs2)cc1Cl", "note": "[Example 80, 2-(((1S,2S)-2-((2-chloro-5-fluoro-4-(N-(thiazol-2-yl)sulfamoyl)phenyl)amino)cyclohexyl)(methyl)amino)-N-methylacetamide formate]", "IC50": 122}
{"compound": "CCN[C@@H]1CCCC[C@H]1Oc1cc(F)c(S(=O)(=O)Nc2nccs2)cc1Cl", "note": "[Example 43, 5-chloro-4-(((1R,2R)-2-(ethylamino)cyclohexyl)oxy)-2-fluoro-N-(thiazol-2-yl)benzenesulfonamide]", "IC50": 1130}
{"compound": "CN(C)[C@@H]1CC[C@@H](c2cccc(C(F)(F)F)c2)C[C@H]1Nc1cc(F)c(S(=O)(=O)Nc2nccs2)cc1Cl", "note": "[Example 93, 5-chloro-4-(((1R,2R,5R)-2-(dimethylamino)-5-(3-(trifluoromethyl)phenyl)cyclohexyl)amino)-2-fluoro-N-(thiazol-2-yl)benzenesulfonamide]", "IC50": 64.7}
{"compound": "CN(C)[C@@H]1CC[C@@H](C(F)(F)F)C[C@H]1Nc1cc(F)c(S(=O)(=O)Nc2nccs2)cc1Cl", "note": "[Example 83, 5-chloro-4-(((1R,2R,5R)-2-(dimethylamino)-5-(trifluoromethyl)cyclohexyl)amino)-2-fluoro-N-(thiazol-2-yl)benzenesulfonamide]", "IC50": 379}
{"compound": "Cc1cnc(NS(=O)(=O)c2cc(Cl)c(N[C@H]3CCCC[C@@H]3N(C)C)cc2F)s1", "note": "[Example 40, 5-chloro-4-(((1S,2S)-2-(dimethylamino)cyclohexyl)amino)-2-fluoro-N-(5-methylthiazol-2-yl)benzenesulfonamide formate]", "IC50": 880}
{"compound": "CC(O)CN(C)[C@H]1CCCC[C@@H]1Nc1cc(F)c(S(=O)(=O)Nc2cccc(F)n2)cc1Cl", "note": "(stereo partly drawn) [Example 86, 5-chloro-2-fluoro-N-(6-fluoropyridin-2-yl)-4-(((1S,2S)-2-((2-hydroxypropyl)(methyl)amino)cyclohexyl)amino)benzenesulfonamide]", "IC50": 38.1}
{"compound": "CN(CC(N)=O)[C@H]1CCCC[C@@H]1Nc1cc(F)c(S(=O)(=O)Nc2nccs2)cc1Cl", "note": "[Example 79, 2-(((1S,2S)-2-((2-chloro-5-fluoro-4-(N-(thiazol-2-yl)sulfamoyl)phenyl)amino)cyclohexyl)(methyl)amino)acetamide formate]", "IC50": 9.28}
